Source: article PMC4639751, “Development of 1-N-^11C-Methyl-L- and -D-Tryptophan for pharmacokinetic imaging of the immune checkpoint inhibitor 1-Methyl-Tryptophan” (Scientific Reports, 2015)

Assays:
[1] = PET, rats, 60 min after injection
Procedure: Emission scans were acquired in three-dimensional list mode with an energy window of 350–650 keV under isoflurane anesthesia, from 0 to 60 min after radioprobe administration. All list-mode acquisition data were sorted into three-dimensional sinograms, which were then Fourier-rebinned into two-dimensional sonograms (frames × min: 4 × 1, 8 × 2, 8 × 5), and corrections for scanner dead time, randoms, and decay of the injected radioprobe. Dynamic images were reconstructed with filtered back-projection using a Hanning filter and a Nyquist cut-off of 0.5 cycles/pixel. Immediately after completion of PET scans, contrast-enhanced CT scans were performed in the rats by using the small-animal CT system (R_mCT2; Rigaku, Tokyo) after injection of 1 mL of non-ionic contrast medium (Iopamiron 370, Bayer, Osaka). The scan conditions included radiation parameters of 200 μA and 90 kV, FOV of 60 mm, and acquisition time of 34 s. CT images were collected, reconstructed, and observed using I-View-R software (Rigaku, The Woodlands, TX). Averaged CT attenuation images and dynamic PET images were reconstructed and fused using the Siemens Inveon Research Workplace (IRW) 4.0 software.
Regions of interest (ROI) in major organs and tissues were drawn in the PET/CT fusion images by manual outlining the organs and tissues in the CT images throughout the image slices by using IRW 4.0 software. The average radioactivity concentration was obtained from mean pixel values in the ROI volume. Regional uptake of radioactivity was decay-corrected to the injection time and expressed as the standardized uptake value (SUV), normalized for injected radioactivity and body weight. SUV was calculated as SUV = (radioactivity per cubic centimeter tissue/injected radioactivity) × body weight in grams. TACs of the radioprobes in individual organ and tissue were determined. Values of area under time-activity curves (AUC2–60 min, SUV × min) were calculated from 2 to 60 min post-injection to minimize the early perfusion effects.

[2] = design: method as in PMID 17234791; conditions: compared with the other isomer; cited from earlier work
[3] = Ex vivo biodistribution studies; conditions: SD rats, mean ± SEM, n = 4
From the text: Major organs and tissues (blood, heart, lung, liver, pancreas, spleen, kidney, intestine, muscle, and brain), were promptly excised, harvested, and weighed. Radioactivity was counted using a γ-counter and expressed as a percentage of the injected dose per gram of wet tissue (%ID/g). All radioactivity measurements were corrected for decay.

[4] = In vitro stability assay in rat plasma; assay type: in vitro ADME; conditions: 37 °C, 90 min incubation, HPLC analysis
Procedure: To determine the in vitro property of the two newly-developed radioprobes, we performed plasma stability studies by HPLC analysis at 37 °C for 90 min. […] More than 95% of ^11C-L-1Mtrp and ^11C-D-1Mtrp remained intact and no detectable metabolites were found at least 90 min after plasma incubation in vitro.
^11C-L-1MTrp and ^11C-D-1MTrp (70–74 MBq, 0.4−0.6 nmol) was dissolved in 2 mL of freshly isolated rat plasma and incubated at 37 °C for 90 min. After 0, 30, 60 and 90 min, an aliquot of 300 μL incubated mixture was taken, proteins in plasma were precipitated with equal volumes of 1 M HClO4 solution, followed by centrifugation at 15000 rpm for 2 min at 4 °C. The supernatant was collected and analyzed by HPLC (Capcell Pack UG80 column, 4.6 mm i.d. × 250 mm) with […] phosphate buffer/CH3CN (8.5/1.5, v/v) at a flow rate of 1 mL/min.

[5] = Ex vivo metabolite studies; assay type: in vivo; conditions: SD rats; for Ex vivo metabolite analysis, % of tailored L- and D-1MTrp entity in Brain / Ex vivo metabolite analysis, % of tailored L- and D-1MTrp entity in Pancreas / Ex vivo metabolite analysis, % of tailored L- and D-1MTrp entity in Plasma: HPLC, mean ± SEM, n = 4
Procedure: To validate the derivation of radioactivity into the relevant organs and tissues, we assessed the metabolites of both radiolabelled isomers in the blood, brain, and pancreas of rats. […] Few radioactive metabolites were detected in these three tissues at 15 and 60 min after ^11C-L-1MTrp and ^11C-D-1MTrp injection.
SD rats were injected with ^11C-L-1MTrp or ^11C-D-1MTrp (70–74 MBq, 0.4–0.6 nmol) via a lateral tail vein. The animals were sacrificed by cervical dislocation at 15 and 60 min after the injection. Blood was collected and centrifuged at 15000 rpm for 2 min at 4 °C to separate the plasma. Brain and pancreas were rapidly removed, then homogenized in equal volumes of 1 M HClO4 solution with a Silent Crusher S homogenizer (Heidolph Instruments). Plasma and homogenates of brain and pancreas from rats were deproteinized and then analyzed by HPLC as described in the stability assay in vitro.

## Cn1cc(C[C@@H](N)C(=O)O)c2ccccc21 [D-1MTrp, 1-Methyl-D-tryptophan, reference compound]
[1]; mean ± SEM, four rats
  SUV in the kidney: 1.79
[2]
  Antitumor activity in in vivo studies: superior antitumor activity
[3]; 60 min after injection
  Biodistribution, radioactivity in Kidney: 1.16 %ID/g tissue

## [11CH3]n1cc(C[C@H](N)C(=O)O)c2ccccc21 [^11C-L-1MTrp, 1-N-^11C-methyl-L-tryptophan]
[4]
  Fraction remaining intact in rat plasma: More than 95%
[1]; mean ± SEM, four rats
  SUV in the kidney: 0.94 ± 0.03
  SUV in the pancreas: 2.28 ± 0.28
[1]; span over these organs
  SUV in the liver, spleen, heart, blood, muscle, lung, brain and intestine: 0.43 ~ 0.70
[5]; 15 and 60 min after injection
  Radioactivity in the brain, pancreas, and blood associated with L- and D-1MTrp: more than 94%
[5]; 15 min after injection
  Ex vivo metabolite analysis, % of tailored L- and D-1MTrp entity in Brain: 98.38 ± 0.34%
  Ex vivo metabolite analysis, % of tailored L- and D-1MTrp entity in Pancreas: 94.73 ± 1.64%
  Ex vivo metabolite analysis, % of tailored L- and D-1MTrp entity in Plasma: 97.67 ± 0.18%
[5]; 60 min after injection
  Ex vivo metabolite analysis, % of tailored L- and D-1MTrp entity in Brain: 98.93 ± 0.51%
  Ex vivo metabolite analysis, % of tailored L- and D-1MTrp entity in Pancreas: 95.88 ± 0.64%
  Ex vivo metabolite analysis, % of tailored L- and D-1MTrp entity in Plasma: 98.44 ± 0.13%
[3]; 1 min after injection
  Biodistribution, radioactivity in Blood: 1.34 ± 0.03 %ID/g tissue
  Biodistribution, radioactivity in Brain: 0.14 ± 0.00 %ID/g tissue
  Biodistribution, radioactivity in Heart: 1.13 ± 0.01 %ID/g tissue
  Biodistribution, radioactivity in Intestine: 1.27 ± 0.05 %ID/g tissue
  Biodistribution, radioactivity in Kidney: 2.60 ± 0.02 %ID/g tissue
  Biodistribution, radioactivity in Liver: 1.51 ± 0.03 %ID/g tissue
  Biodistribution, radioactivity in Lung: 0.98 ± 0.02 %ID/g tissue
  Biodistribution, radioactivity in Muscle: 0.18 ± 0.02 %ID/g tissue
  Biodistribution, radioactivity in Pancreas: 2.95 ± 0.23 %ID/g tissue
  Biodistribution, radioactivity in Spleen: 0.98 ± 0.05 %ID/g tissue
[3]; 5 min after injection
  Biodistribution, radioactivity in Blood: 0.65 ± 0.01 %ID/g tissue
  Biodistribution, radioactivity in Brain: 0.20 ± 0.01 %ID/g tissue
  Biodistribution, radioactivity in Heart: 0.64 ± 0.01 %ID/g tissue
  Biodistribution, radioactivity in Intestine: 0.68 ± 0.01 %ID/g tissue
  Biodistribution, radioactivity in Kidney: 1.64 ± 0.03 %ID/g tissue
  Biodistribution, radioactivity in Liver: 0.73 ± 0.01 %ID/g tissue
  Biodistribution, radioactivity in Lung: 0.62 ± 0.01 %ID/g tissue
  Biodistribution, radioactivity in Muscle: 0.46 ± 0.01 %ID/g tissue
  Biodistribution, radioactivity in Spleen: 0.61 ± 0.00 %ID/g tissue
[3]; 15 min after injection
  Biodistribution, radioactivity in Blood: 0.54 ± 0.02 %ID/g tissue
  Biodistribution, radioactivity in Brain: 0.27 ± 0.02 %ID/g tissue
  Biodistribution, radioactivity in Heart: 0.54 ± 0.02 %ID/g tissue
  Biodistribution, radioactivity in Intestine: 0.53 ± 0.02 %ID/g tissue
  Biodistribution, radioactivity in Kidney: 1.11 ± 0.06 %ID/g tissue
  Biodistribution, radioactivity in Liver: 0.61 ± 0.03 %ID/g tissue
  Biodistribution, radioactivity in Lung: 0.50 ± 0.02 %ID/g tissue
  Biodistribution, radioactivity in Muscle: 0.46 ± 0.02 %ID/g tissue
  Biodistribution, radioactivity in Pancreas: 2.65 ± 0.16 %ID/g tissue
  Biodistribution, radioactivity in Spleen: 0.55 ± 0.02 %ID/g tissue
[3]; 30 min after injection
  Biodistribution, radioactivity in Blood: 0.50 ± 0.01 %ID/g tissue
  Biodistribution, radioactivity in Brain: 0.30 ± 0.02 %ID/g tissue
  Biodistribution, radioactivity in Heart: 0.49 ± 0.01 %ID/g tissue
  Biodistribution, radioactivity in Intestine: 0.51 ± 0.00 %ID/g tissue
  Biodistribution, radioactivity in Kidney: 0.86 ± 0.03 %ID/g tissue
  Biodistribution, radioactivity in Liver: 0.55 ± 0.01 %ID/g tissue
  Biodistribution, radioactivity in Lung: 0.45 ± 0.01 %ID/g tissue
  Biodistribution, radioactivity in Muscle: 0.45 ± 0.01 %ID/g tissue
  Biodistribution, radioactivity in Pancreas: 2.70 ± 0.17 %ID/g tissue
  Biodistribution, radioactivity in Spleen: 0.51 ± 0.01 %ID/g tissue
[3]; 60 min after injection
  Biodistribution, radioactivity in Blood: 0.50 ± 0.02 %ID/g tissue
  Biodistribution, radioactivity in Brain: 0.31 ± 0.01 %ID/g tissue
  Biodistribution, radioactivity in Heart: 0.47 ± 0.02 %ID/g tissue
  Biodistribution, radioactivity in Intestine: 0.46 ± 0.02 %ID/g tissue
  Biodistribution, radioactivity in Kidney: 0.74 ± 0.04 %ID/g tissue
  Biodistribution, radioactivity in Liver: 0.54 ± 0.02 %ID/g tissue
  Biodistribution, radioactivity in Lung: 0.43 ± 0.02 %ID/g tissue
  Biodistribution, radioactivity in Muscle: 0.45 ± 0.02 %ID/g tissue
  Biodistribution, radioactivity in Pancreas: 2.27 ± 0.05 %ID/g tissue
  Biodistribution, radioactivity in Spleen: 0.48 ± 0.01 %ID/g tissue
